Holding throughout (test): biochemical
Common to all, as to design: DiscoverX kinase panel, active-site competition binding (KINOMEscan type), percent of control at one concentration
Common to all, as to settings: competition binding, percent of control

The target of one assay is TLK1 (Homo sapiens, UniProt Q9UKI8). An excerpt:
(§1) To investigate the potential therapeutic benefit of inhibiting RIP1, we developed GNE684 or (S)-N-((S)-7-methoxy-1-methyl-2-oxo-2,3,4,5-tetrahydro-1H-pyrido[3,4-b]azepin-3-yl)-5-phenyl-6,7-dihydro-5H-pyrrolo[1,2-b][1,2,4]triazole-2-carboxamide with cross-species potency against RIP1, exquisite kinase selectivity, and favorable pharmacological properties (Fig. 1a–h, S1, Tables S1 and S2, SI file 1). […] (Fig. 1b, S1, and Table S1). […] GNE684 inhibited human RIP1 potently in vitro, and mouse and rat RIP1 with slightly less potency (Fig. 1d). Accordingly, it inhibited TNF-induced necroptosis in human HT-29, mouse L929, or rat H9c2 cells (Fig. 1e). The cellular potency of GNE684 was confirmed in a human whole blood assay using TBZ (TNF, IAP antagonist BV6, and pan-caspase inhibitor zVAD) or LZ (LPS plus zVAD) to trigger necroptosis and the release of IL-1α and IL-1β (Fig. 1f).

A further assay concerns the target RIOK1 (Homo sapiens, UniProt Q9BRS2).
Description: as §1

Another assay concerns the target T1, VPS34 (Homo sapiens, UniProt Q8NEB9).
T1 construct: gene PIK3C3
Description: as §1

Another assay addresses CSNK1G2 (Homo sapiens, UniProt P78368).
Description: as §1

For the next assay, the target named is CIT (Homo sapiens, UniProt O14578).
Description: as §1

For a further assay, the target named is AKT3 (Homo sapiens, UniProt Q9Y243).
Description: as §1

For the next assay, the target named is T2, NDR1 (Homo sapiens, UniProt Q15208).
T2 construct: gene STK38
Description: as §1

In a further assay the target is T3, MLK3 (Homo sapiens, UniProt Q16584).
T3 construct: gene MAP3K11
Description: as §1

Another assay has as its target T4, MLCK (Homo sapiens, UniProt Q32MK0).
T4 construct: gene MYLK3
Description: as §1

Another assay has as its target HASPIN (Homo sapiens, UniProt Q8TF76).
Description: as §1

The target of another assay is CSNK2A1 (Homo sapiens, UniProt P68400).
Description: as §1

The target of another assay is PIK3CA(Q546K) (Homo sapiens, UniProt P42336, Q546K).
Description: as §1

For the next assay, the target named is WNK2 (Homo sapiens, UniProt Q9Y3S1).
Description: as §1

In the next assay the target is MAPKAPK2 (Homo sapiens, UniProt P49137).
Description: as §1

The target in another assay is MAK (Homo sapiens, UniProt P20794).
Description: as §1

Another assay deals with TNNI3K (Homo sapiens, UniProt Q59H18).
Description: as §1

A further assay concerns the target WEE1 (Homo sapiens, UniProt P30291).
Description: as §1

The target in the next assay is KIT(D816H) (Homo sapiens, UniProt P10721, D816H).
Description: as §1

A further assay has as its target T5, YANK3 (Homo sapiens, UniProt Q86UX6).
T5 construct: gene STK32C
Description: as §1

For assay [1], the target named is T6, TYK2(JH2domain-pseudokinase) (Homo sapiens, UniProt P29597).
T6 construct: JH2domain-pseudokinase
Description: as §1

A further assay concerns the target PIK3C2B (Homo sapiens, UniProt O00750).
Description: as §1

T2 sequence (Q15208 whole entry): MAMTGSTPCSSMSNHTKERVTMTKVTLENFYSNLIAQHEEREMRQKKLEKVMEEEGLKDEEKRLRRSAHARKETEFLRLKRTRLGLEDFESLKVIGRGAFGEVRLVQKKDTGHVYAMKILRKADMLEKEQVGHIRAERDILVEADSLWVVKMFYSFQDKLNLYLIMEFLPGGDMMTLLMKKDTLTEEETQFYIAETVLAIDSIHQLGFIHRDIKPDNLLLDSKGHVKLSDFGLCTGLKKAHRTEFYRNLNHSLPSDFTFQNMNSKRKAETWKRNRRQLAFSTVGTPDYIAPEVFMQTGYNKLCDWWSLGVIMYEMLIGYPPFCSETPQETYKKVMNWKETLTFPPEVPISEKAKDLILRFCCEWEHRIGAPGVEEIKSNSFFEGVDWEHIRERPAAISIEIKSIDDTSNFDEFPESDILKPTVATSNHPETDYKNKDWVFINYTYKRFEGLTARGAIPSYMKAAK
T3 sequence (Q16584 whole entry): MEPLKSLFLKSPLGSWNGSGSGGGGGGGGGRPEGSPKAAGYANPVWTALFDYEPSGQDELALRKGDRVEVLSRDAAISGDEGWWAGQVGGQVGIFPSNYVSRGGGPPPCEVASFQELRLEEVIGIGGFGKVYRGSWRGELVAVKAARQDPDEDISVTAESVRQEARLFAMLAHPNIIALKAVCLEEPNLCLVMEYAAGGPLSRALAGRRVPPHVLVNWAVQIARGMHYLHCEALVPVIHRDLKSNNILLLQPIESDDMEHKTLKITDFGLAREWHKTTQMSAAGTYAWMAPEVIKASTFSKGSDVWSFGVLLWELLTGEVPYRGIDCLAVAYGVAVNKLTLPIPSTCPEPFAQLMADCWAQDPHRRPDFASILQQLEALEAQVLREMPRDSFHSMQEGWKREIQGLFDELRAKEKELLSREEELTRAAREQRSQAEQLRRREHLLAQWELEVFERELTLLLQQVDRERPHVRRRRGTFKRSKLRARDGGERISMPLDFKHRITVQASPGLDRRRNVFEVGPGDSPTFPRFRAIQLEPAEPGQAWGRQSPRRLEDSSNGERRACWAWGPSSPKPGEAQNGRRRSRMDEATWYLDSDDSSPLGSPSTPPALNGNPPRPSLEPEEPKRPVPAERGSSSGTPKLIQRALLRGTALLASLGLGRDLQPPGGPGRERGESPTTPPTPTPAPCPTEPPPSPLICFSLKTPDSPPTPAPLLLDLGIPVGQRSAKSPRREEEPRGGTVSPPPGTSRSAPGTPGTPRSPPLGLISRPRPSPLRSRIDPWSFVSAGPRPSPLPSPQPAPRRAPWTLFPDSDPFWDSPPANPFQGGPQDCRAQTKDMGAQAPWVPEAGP
T6 sequence (P29597 whole entry): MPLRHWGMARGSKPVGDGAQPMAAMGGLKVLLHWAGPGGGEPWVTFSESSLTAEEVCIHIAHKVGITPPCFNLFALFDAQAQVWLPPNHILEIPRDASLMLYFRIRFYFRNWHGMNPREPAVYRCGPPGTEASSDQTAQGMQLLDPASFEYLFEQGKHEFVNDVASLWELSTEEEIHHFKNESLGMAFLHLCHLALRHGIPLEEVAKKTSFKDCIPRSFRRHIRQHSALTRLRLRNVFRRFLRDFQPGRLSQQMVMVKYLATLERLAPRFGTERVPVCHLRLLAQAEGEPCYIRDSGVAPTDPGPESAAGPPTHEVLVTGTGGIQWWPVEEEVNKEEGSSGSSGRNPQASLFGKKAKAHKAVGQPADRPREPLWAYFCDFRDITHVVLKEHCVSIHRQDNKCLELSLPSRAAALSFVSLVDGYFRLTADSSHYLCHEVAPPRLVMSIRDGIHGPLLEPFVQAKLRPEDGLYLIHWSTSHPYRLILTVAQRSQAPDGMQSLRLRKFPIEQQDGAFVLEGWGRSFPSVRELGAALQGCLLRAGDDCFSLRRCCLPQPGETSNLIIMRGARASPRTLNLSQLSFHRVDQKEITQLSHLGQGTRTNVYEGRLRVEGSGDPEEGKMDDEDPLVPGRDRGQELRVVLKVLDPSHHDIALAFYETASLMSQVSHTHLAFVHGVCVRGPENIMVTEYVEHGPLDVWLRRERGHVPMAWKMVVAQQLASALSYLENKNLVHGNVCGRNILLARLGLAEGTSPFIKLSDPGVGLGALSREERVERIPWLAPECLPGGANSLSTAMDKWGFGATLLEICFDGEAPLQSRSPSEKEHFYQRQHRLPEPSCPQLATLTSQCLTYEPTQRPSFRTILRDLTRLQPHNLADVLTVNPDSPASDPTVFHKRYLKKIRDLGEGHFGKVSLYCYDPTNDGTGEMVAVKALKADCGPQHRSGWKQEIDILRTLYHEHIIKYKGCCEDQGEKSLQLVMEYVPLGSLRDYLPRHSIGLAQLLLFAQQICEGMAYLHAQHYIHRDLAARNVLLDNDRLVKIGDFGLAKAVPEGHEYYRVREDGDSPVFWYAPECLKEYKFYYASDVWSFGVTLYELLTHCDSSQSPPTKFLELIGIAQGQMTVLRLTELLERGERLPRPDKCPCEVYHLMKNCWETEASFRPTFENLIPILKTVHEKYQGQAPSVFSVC
Sequence of PIK3CA(Q546K) (P42336 whole entry Q546K): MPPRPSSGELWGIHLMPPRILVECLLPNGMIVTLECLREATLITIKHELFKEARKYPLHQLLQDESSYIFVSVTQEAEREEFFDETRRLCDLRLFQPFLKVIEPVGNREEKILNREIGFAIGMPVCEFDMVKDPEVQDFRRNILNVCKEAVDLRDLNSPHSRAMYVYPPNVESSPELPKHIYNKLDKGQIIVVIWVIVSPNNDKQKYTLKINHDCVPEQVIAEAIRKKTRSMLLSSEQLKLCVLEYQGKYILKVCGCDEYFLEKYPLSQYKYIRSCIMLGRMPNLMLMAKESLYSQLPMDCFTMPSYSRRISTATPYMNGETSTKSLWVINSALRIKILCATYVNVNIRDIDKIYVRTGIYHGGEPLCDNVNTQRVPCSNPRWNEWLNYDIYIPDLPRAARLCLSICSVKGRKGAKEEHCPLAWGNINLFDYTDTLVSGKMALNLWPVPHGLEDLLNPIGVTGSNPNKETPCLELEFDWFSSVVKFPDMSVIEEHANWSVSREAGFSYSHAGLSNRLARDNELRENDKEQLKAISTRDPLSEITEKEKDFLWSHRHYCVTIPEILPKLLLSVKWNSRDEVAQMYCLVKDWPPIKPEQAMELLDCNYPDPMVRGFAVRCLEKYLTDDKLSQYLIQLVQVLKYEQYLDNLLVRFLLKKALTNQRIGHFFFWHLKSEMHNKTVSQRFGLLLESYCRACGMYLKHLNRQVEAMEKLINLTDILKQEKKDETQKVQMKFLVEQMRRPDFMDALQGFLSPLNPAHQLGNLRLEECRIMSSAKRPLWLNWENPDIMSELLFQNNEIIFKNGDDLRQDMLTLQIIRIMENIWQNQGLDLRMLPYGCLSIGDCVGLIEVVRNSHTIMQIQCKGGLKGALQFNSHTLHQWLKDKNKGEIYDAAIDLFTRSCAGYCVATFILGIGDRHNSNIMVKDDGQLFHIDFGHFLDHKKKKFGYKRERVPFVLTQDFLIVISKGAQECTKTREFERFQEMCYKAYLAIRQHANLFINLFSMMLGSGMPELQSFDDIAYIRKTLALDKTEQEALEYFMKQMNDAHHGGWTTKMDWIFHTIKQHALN
Sequence of MAPKAPK2 (P49137 whole entry): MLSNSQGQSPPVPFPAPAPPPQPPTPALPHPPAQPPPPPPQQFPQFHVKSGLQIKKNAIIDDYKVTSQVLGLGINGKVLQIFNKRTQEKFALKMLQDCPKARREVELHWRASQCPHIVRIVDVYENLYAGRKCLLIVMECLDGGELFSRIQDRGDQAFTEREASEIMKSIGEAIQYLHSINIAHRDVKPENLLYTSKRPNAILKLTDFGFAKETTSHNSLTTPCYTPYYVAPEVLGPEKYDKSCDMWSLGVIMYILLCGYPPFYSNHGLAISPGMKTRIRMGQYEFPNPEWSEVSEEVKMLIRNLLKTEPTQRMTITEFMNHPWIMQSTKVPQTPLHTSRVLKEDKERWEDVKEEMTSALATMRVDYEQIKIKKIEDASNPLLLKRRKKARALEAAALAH
Sequence of AKT3 (Q9Y243 whole entry): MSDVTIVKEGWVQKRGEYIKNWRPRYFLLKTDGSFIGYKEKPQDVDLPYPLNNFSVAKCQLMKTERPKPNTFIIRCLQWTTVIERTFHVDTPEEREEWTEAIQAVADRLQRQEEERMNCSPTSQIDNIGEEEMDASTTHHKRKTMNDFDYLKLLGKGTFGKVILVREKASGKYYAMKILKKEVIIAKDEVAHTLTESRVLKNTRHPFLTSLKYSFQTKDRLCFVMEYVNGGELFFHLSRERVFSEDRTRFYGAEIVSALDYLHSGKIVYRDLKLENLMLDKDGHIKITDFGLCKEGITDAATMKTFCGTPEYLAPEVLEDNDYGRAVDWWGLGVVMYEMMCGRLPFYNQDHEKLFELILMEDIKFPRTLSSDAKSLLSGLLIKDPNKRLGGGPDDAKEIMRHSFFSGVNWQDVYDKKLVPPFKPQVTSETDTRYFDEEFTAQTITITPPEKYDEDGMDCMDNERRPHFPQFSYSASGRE
Sequence of MAK (P20794 whole entry): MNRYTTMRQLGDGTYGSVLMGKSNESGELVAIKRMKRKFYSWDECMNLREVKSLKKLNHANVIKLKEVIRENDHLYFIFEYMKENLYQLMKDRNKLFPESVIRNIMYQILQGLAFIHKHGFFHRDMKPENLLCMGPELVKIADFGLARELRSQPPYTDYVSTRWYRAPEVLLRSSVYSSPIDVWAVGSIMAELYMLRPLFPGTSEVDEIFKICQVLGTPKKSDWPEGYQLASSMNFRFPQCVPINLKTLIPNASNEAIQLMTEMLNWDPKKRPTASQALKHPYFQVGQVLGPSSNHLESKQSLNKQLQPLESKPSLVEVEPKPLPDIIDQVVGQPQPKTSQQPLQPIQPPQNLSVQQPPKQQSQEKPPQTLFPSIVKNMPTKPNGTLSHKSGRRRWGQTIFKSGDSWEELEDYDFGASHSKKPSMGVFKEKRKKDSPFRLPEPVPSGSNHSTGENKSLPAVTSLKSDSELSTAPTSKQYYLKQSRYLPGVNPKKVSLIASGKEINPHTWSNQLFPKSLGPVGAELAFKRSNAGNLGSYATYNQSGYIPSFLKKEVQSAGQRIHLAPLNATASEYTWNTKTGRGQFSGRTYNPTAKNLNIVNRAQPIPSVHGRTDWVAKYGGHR

For `COc1cc2c(cn1)N(C)C(=O)[C@@H](NC(=O)c1nc3n(n1)[C@H](c1ccccc1)CC3)CC2` [GNE684, (S)-N-((S)-7-methoxy-1-methyl-2-oxo-2,3,4,5-tetrahydro-1H-pyrido[3,4-b]azepin-3-yl)-5-phenyl-6,7-dihydro-5H-pyrrolo[1,2-b][1,2,4]triazole-2-carboxamide], the remaining binding at 10 µM at TLK1 worked out at 97%; on RIOK1 it was 84%; at VPS34, 100%; at CSNK1G2 it was 90%; at CIT, 100%; on AKT3, 75%. In addition, the remaining binding at 10 µM on NDR1 came to 79%; at MLK3, 100%; on MLCK, 66%; at HASPIN it was 100%; at CSNK2A1, 93%; at PIK3CA(Q546K) it was 49%. Besides, the remaining binding at 10 µM stood at 83% on WNK2; 100% on MAPKAPK2; 96% at MAK; 100% at TNNI3K; 69% at WEE1; 100% on KIT(D816H). Also, the remaining binding at 10 µM on YANK3 came to 93%; in [1] it was 100%; on PIK3C2B, 93%.

Source of the values: PMC7206119, “RIP1 inhibition blocks inflammatory diseases but not tumor growth or metastases” (Cell Death and Differentiation, 2019).
